# Paper PMC9891081 (Cell, 2022)
# B1: rabbit γ1 subunit (natural protein, UniProt P19518 1-222, looked up)
# chain: MSPTEAPKVRVTLFCILVGIVLAMTAVVSDHWAVLSPHMENHNTTCEAAHFGLWRICTKRIALGEDRSCGPITLPGEKNCSYFRHFNPGESSEIFEFTTQKEYSISAAAISVFSLGFLIMGTICALMAFRKKRDYLLRPASMFYVFAGLCLFVSLEVMRQSVKRMIDSEDTVWIEYYYSWSFACACAAFVLLFLGGISLLLFSLPRMPQNPWESCMDAEPEH
# Key:
# human Cav1.2 = human Cav1.2 (Homo sapiens, UniProt Q13936); experiment: calcium influx assay in HEK293 cells; type: cell-based
# [1] = biological target: rabbit Cav1.1 (rCav1.1) α1 subunit (Oryctolagus cuniculus, UniProt P07293); experiment: cryo-EM structure; type: binding
# rabbit Cav1.1 α1 subunit = rabbit Cav1.1 α1 subunit (rabbit, UniProt P07293 1-1873); experiment: cryo-EM structure
# Chain of rabbit Cav1.1 α1 subunit (P07293 whole entry): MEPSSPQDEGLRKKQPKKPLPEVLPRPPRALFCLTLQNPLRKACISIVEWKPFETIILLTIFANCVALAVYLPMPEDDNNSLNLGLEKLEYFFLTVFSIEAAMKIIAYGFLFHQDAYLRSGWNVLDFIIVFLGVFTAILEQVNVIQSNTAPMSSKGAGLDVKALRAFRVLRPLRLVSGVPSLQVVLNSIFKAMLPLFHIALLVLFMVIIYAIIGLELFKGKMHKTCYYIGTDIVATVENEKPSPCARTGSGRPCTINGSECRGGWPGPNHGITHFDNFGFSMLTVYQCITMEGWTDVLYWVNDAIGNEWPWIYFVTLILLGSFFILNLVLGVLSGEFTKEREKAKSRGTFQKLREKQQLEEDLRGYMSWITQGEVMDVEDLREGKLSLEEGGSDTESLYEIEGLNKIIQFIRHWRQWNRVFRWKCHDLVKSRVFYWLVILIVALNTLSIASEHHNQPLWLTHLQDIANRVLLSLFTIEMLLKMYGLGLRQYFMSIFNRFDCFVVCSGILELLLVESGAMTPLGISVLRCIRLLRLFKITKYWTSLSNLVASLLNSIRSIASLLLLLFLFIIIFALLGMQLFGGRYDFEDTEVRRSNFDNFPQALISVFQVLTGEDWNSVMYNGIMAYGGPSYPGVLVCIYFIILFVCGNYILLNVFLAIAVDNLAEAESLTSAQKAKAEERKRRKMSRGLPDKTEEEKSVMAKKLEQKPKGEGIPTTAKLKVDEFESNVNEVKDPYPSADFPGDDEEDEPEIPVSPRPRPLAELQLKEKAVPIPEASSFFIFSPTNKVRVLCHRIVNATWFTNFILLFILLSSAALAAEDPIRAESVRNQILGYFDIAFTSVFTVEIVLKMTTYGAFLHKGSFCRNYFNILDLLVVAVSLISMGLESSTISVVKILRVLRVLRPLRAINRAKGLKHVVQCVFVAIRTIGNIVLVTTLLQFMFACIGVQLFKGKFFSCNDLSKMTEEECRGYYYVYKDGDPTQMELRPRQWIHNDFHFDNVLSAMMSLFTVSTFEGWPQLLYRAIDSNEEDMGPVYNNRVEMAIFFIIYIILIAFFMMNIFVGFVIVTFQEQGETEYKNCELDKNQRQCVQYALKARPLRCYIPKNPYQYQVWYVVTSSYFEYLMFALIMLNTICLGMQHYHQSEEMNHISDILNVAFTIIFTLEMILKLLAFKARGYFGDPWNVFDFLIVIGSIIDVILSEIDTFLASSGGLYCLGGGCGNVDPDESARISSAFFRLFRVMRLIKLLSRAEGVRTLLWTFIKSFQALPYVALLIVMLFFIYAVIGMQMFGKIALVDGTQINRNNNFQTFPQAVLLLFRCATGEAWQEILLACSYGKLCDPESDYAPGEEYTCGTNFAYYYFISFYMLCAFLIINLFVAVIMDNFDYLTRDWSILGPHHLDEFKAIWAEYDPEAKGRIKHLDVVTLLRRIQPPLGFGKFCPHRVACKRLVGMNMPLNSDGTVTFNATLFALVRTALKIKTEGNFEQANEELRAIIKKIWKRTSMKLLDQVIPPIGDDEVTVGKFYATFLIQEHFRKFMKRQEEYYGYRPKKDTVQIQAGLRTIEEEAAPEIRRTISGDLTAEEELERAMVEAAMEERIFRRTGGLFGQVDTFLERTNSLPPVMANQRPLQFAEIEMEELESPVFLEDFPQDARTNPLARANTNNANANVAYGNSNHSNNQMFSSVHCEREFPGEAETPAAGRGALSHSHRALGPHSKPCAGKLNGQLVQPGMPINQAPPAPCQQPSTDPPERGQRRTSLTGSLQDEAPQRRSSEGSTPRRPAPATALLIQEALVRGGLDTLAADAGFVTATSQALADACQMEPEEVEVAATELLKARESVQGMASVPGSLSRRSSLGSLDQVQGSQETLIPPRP
# Chain of rabbit Cav1.1 (rCav1.1) α1 subunit (P07293 whole entry, one chain of several): as the sequence (P07293 whole entry) above
# Chain of rabbit Cav1.1 (rCav1.1) α1 subunit (P13806 27-960 partner, one chain of several): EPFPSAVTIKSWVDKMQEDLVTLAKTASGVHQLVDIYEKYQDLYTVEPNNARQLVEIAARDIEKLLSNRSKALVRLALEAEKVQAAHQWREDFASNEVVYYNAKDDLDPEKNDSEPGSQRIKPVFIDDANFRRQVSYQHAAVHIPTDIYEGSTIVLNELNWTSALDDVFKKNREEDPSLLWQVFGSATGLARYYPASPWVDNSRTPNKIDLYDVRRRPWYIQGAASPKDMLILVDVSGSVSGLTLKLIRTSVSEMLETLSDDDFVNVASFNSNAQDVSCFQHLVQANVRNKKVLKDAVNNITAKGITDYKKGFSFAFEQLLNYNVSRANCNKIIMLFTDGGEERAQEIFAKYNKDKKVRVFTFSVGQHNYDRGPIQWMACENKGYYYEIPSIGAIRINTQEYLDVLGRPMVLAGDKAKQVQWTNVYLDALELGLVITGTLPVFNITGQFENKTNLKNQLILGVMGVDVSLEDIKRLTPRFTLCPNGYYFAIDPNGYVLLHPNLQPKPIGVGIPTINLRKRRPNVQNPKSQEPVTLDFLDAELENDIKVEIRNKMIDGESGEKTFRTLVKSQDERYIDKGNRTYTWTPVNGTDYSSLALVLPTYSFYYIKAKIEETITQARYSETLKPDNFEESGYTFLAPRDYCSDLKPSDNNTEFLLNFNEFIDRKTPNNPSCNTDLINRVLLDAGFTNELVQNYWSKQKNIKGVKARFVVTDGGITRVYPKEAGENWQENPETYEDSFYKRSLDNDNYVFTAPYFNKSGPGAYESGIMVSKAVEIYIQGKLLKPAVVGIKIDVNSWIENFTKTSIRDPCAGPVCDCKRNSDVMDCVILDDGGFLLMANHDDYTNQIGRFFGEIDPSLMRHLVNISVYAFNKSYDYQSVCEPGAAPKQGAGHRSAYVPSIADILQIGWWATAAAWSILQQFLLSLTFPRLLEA
# Chain of rabbit Cav1.1 (rCav1.1) α1 subunit (P13806 961-1106 partner, one chain of several): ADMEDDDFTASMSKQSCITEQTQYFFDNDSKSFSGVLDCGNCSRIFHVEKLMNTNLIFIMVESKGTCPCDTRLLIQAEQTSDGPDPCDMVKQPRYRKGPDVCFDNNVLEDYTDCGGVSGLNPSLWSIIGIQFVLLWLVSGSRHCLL
molecule,measurement,setting,value
C#C[C@]1(C)[C@@H](O)[C@@H](COP(=O)(N[C@@H](C)C(=O)OC(C)C)Oc2ccccc2)O[C@H]1n1ccc(=O)[nH]c1=O (stereo partly drawn) [MNI-1],IC50,human Cav1.2,> 100 µM
"CCCCc1oc2ccccc2c1C(=O)c1cc(I)c(OCCN(CC)CC)c(I)c1 [AMIO, amiodarone]",cryo-EM structure (2.8 Å),[1],"AMIO occupies the same site as for DHP compounds, i.e., the III-IV fenestration enclosed by S5III, S6III, and S6IV"
B1,binding result,rabbit Cav1.1 α1 subunit,binds
